Some results are limits rather than exact numbers.

From ChEMBL document CHEMBL2380212, “Synthesis, single crystal and antitumor activities of benzimidazole-quinazoline hybrids” (Bioorg Med Chem Lett, 2013) come the findings set out here.

Holding throughout (format): functional
The subject of one test is U-251. As to the kind of experiment: Cytotoxicity against human U251 cells at 10 uM after 48 hrs by SRB assay. Conditions: U-251, 48 h, read-out: GI. In general terms: Sulforhodamine B stains cellular protein and so reports cell mass.
In the next test the test system is OVCAR-3. Put plainly: Cytotoxicity against human OVCAR3 cells at 10 uM after 48 hrs by SRB assay. Conditions: OVCAR-3, 48 h, read-out: GI.
In another test the test system is ACHN. Put plainly: Cytotoxicity against human ACHN cells at 10 uM after 48 hrs by SRB assay. As to conditions: read-out: GI.
In the next test the test system is CAKI-1. Put plainly: Cytotoxicity against human Caki1 cells at 10 uM after 48 hrs by SRB assay. Conditions: CAKI-1, 48 h, read-out: GI.
In a further test the test system is SNB-75. As to the kind of experiment: Cytotoxicity against human SNB75 cells at 10 uM after 48 hrs by SRB assay. As to conditions: SNB-75, 48 h, read-out: GI.
The next test concerns NCI-H322M. Put plainly: Cytotoxicity against human NCI-H322M cells at 10 uM after 48 hrs by SRB assay. Conditions: read-out: GI.
For a further test, the system named is HOP-62. As to the kind of experiment: Cytotoxicity against human HOP62 cells at 10 uM after 48 hrs by SRB assay. Conditions: HOP-62, 48 h, read-out: GI.
The test system of another test is SF-268. Put plainly: Cytotoxicity against human SF268 cells at 10 uM after 48 hrs by SRB assay. As to conditions: SF-268, 48 h, read-out: GI.
A further test concerns RXF 393. Put plainly: Cytotoxicity against human RXF393 cells at 10 uM after 48 hrs by SRB assay. As to conditions: RXF 393, 48 h, read-out: GI.
Another test has as its system MDA-MB-468. As to the kind of experiment: Cytotoxicity against human MDA-MB-468 cells at 10 uM after 48 hrs by SRB assay. As to conditions: MDA-MB-468, 48 h, read-out: GI.
The test system of a further test is SK-OV-3. As to the kind of experiment: Cytotoxicity against human SKOV3 cells at 10 uM after 48 hrs by SRB assay. As to conditions: SK-OV-3, 48 h, read-out: GI.
Another test relates to SN12C. Put plainly: Cytotoxicity against human SN12C cells at 10 uM after 48 hrs by SRB assay. As to conditions: read-out: GI.
Another test has as its system M14. Put plainly: Cytotoxicity against human M14 cells at 10 uM after 48 hrs by SRB assay. As to conditions: M14, 48 h, read-out: GI.
The next test relates to HCC 2998. Put plainly: Cytotoxicity against human HCC2998 cells at 10 uM after 48 hrs by SRB assay. As to conditions: HCC 2998, 48 h, read-out: GI.
A further test concerns DU-145. Put plainly: Cytotoxicity against human DU145 cells at 10 uM after 48 hrs by SRB assay. Conditions: DU-145, 48 h, read-out: GI.
A further test has as its system SF-539. Put plainly: Cytotoxicity against human SF539 cells at 10 uM after 48 hrs by SRB assay. As to conditions: SF-539, 48 h, read-out: GI.
In another test the test system is HL-60(TB). As to the kind of experiment: Cytotoxicity against human HL-60(TB) cells at 10 uM after 48 hrs by SRB assay. As to conditions: HL-60, 48 h, read-out: GI.
The next test concerns CCRF-CEM. As to the kind of experiment: Cytotoxicity against human CCRF-CEM cells at 10 uM after 48 hrs by SRB assay. Conditions: read-out: GI.
Another test relates to Malme-3M. Put plainly: Cytotoxicity against human MALME-3M cells at 10 uM after 48 hrs by SRB assay. Conditions: read-out: GI.

Regarding `C=CCn1c(C)nc2cc(Nc3nc(Cl)nc4ccccc34)ccc21`, the inhibition of growth at 10 µM with U-251 is < 10%; in the test with OVCAR-3, < 10%; in the test with ACHN, < 10%; in the test on CAKI-1, 16.9%; with SNB-75, < 10%; in the test on NCI-H322M it was < 10%. The inhibition of growth at 10 µM in the test on HOP-62 was < 10%; in the test with SF-268, < 10%; with RXF 393 it was < 10%; in the test with MDA-MB-468, 19.1%; with SK-OV-3, < 10%; in the test on SN12C, < 10%. For the same compound, the inhibition of growth at 10 µM in the test with M14, in the test on HCC 2998, in the test on DU-145, in the test on SF-539 and in the test on HL-60(TB) was < 10% each time.

In the case of `C=CCn1c(C)nc2ccc(Nc3nc(N4CCN(C)CC4)nc4ccccc34)cc21`, the inhibition of growth at 10 µM is 10.2% in the test with U-251; < 10% in the test on OVCAR-3; < 10% with ACHN; 31.5% in the test with CCRF-CEM; 14.4% with CAKI-1; 17.6% in the test on SNB-75. Besides, the inhibition of growth at 10 µM was < 10% in the test on NCI-H322M; 11.3% in the test on HOP-62; < 10% with SF-268; < 10% in the test with RXF 393; < 10% in the test on Malme-3M; < 10% with MDA-MB-468. The inhibition of growth at 10 µM in the test on SK-OV-3 is < 10%; in the test with SN12C, < 10%; in the test with M14, < 10%; in the test with HCC 2998, < 10%; in the test on DU-145 it was < 10%; in the test with SF-539 it was 23.5%. Moreover, the inhibition of growth at 10 µM in the test with HL-60(TB) is < 10%.

`C=CCn1c(C)nc2ccc(Nc3nc(Cl)nc4ccccc34)cc21`: the inhibition of growth at 10 µM in the test on U-251 was < 10%; in the test with OVCAR-3 it was < 10%; in the test with ACHN it was < 10%; in the test on CAKI-1 it was 12.8%; with SNB-75, < 10%; in the test on NCI-H322M, < 10%. Besides, the inhibition of growth at 10 µM in the test with HOP-62 was < 10%; with SF-268 it was 10.1%; with RXF 393, 12.5%; with Malme-3M, < 10%; in the test with MDA-MB-468, 16.3%; in the test with SK-OV-3 it was < 10%. Further, the inhibition of growth at 10 µM is < 10% with SN12C; < 10% with M14; < 10% in the test with HCC 2998; < 10% in the test on DU-145; < 10% with SF-539; 15.9% in the test on HL-60(TB).

With `C=CCn1c(C)nc2ccc(Nc3nc(N4CCCC4)nc4ccccc34)cc21`, the inhibition of growth at 10 µM with U-251 was < 10%; with OVCAR-3 it was < 10%; with ACHN, < 10%; in the test with CAKI-1 it was 15%; in the test with SNB-75 it was 16.3%; in the test on NCI-H322M, < 10%. The inhibition of growth at 10 µM in the test with HOP-62 is < 10%; with SF-268, 13.1%; in the test with RXF 393, 47.6%; in the test on Malme-3M, < 10%; in the test with MDA-MB-468 it was < 10%; with SK-OV-3, < 10%. The inhibition of growth at 10 µM with SN12C was < 10%; in the test on M14 it was 10.3%; with HCC 2998, 76.6%; in the test with DU-145, 26.2%; in the test on SF-539, < 10%; in the test on HL-60(TB), 11.5%.

For `C=CCn1c(C)nc2ccc(Nc3nc(N4CCOCC4)nc4ccccc34)cc21`, the inhibition of growth at 10 µM in the test with U-251 was < 10%; in the test on OVCAR-3 it was < 10%; in the test on ACHN, < 10%; in the test on CAKI-1 it was 11.5%; in the test on SNB-75, 12.6%; in the test on NCI-H322M, < 10%. The inhibition of growth at 10 µM with HOP-62, in the test with SF-268, with RXF 393, in the test with Malme-3M, with MDA-MB-468 and in the test with SK-OV-3 was < 10% throughout. The inhibition of growth at 10 µM in the test with SN12C is < 10%; in the test with M14, < 10%; in the test with HCC 2998, < 10%; with DU-145 it was < 10%; in the test on SF-539 it was < 10%; with HL-60(TB), 61.9%.

Regarding `C=CCn1c(C)nc2cc(Nc3nc(N4CCCC4)nc4ccccc34)ccc21`, the inhibition of growth at 10 µM in the test with U-251 was < 10%; in the test with OVCAR-3, < 10%; in the test on ACHN it was < 10%; in the test on CAKI-1, 10.2%; in the test with SNB-75, < 10%; in the test on NCI-H322M, < 10%. Also, the inhibition of growth at 10 µM in the test on HOP-62 is < 10%; with SF-268 it was < 10%; in the test with RXF 393, < 10%; in the test on Malme-3M, < 10%; with MDA-MB-468, 13.3%; in the test on SK-OV-3 it was < 10%. Further, the inhibition of growth at 10 µM in the test on SN12C, in the test on M14, in the test with HCC 2998, with DU-145, with SF-539 and in the test with HL-60(TB) was < 10% each time.

As for `C=CCn1c(C)nc2cc(Nc3nc(N4CCOCC4)nc4ccccc34)ccc21`, the inhibition of growth at 10 µM in the test with U-251, in the test on OVCAR-3, with ACHN, in the test with CAKI-1, with SNB-75 and with NCI-H322M was < 10% throughout. The inhibition of growth at 10 µM in the test with HOP-62, in the test on SF-268, in the test on RXF 393, with MDA-MB-468, in the test on SK-OV-3 and in the test with SN12C was < 10% in each case. The inhibition of growth at 10 µM in the test with M14 is < 10%; in the test with HCC 2998, < 10%; in the test on DU-145, < 10%; with SF-539, < 10%; with HL-60(TB), 13.5%.
